This is an account of results in patent US20260183276A1, “miRNA DYSREGULATION CORRECTION AS A STRATEGY TO TREAT HUNTINGTON'S DISEASE” (The Chinese University of Hong Kong, priority 2022, published 2026).

For data set [1], the system named is TAK1-MKK4-JNK pro-apoptotic signaling in PAPD5-overexpressing cells. As to the kind of experiment: Western blotting of TAK1-MKK4-JNK caspase cascade, PAPD5-overexpressing cells. The class given is cell-based. As for the experimental part:
(§1) SK-N-MC cells (ATCC) were cultured in DMEM (GE Healthcare BioSciences) supplemented with 10% fetal bovine serum and 1% penicillin-streptomycin. Cells were maintained in a 37° C. humidified cell culture incubator supplemented with 5% CO2. Plasmid DNA and siRNA/synthetic miRNA transfection was performed using Lipofectamine 2000 (Thermo Fisher Scientific) and Lipofectamine RNAiMAX (Thermo Fisher Scientific), respectively.
(§2) Proteins were extracted from SK-N-MC cells or mouse primary cortical neurons using SDS sample buffer. For protein extraction from mice, half of the brain was homogenized in protein lysis buffer (50 mM Tris-HCl, pH 7.6, 150 mM NaCl, 10% NP40, 5% sodium deoxycholate). All protein samples were boiled at 99° C. for 10 minutes, prior to Western blotting. Primary antibodies used were anti-PAPD5 (PA5-46747, 1:1,000) from Invitrogen; anti-p-TAK1 (4536, 1:1,000), anti-t-TAK1 (4505, 1:2,000), anti-p-MKK4 (9156, 1:1,000), anti-t-MKK4 (9152, 1:2,000), anti-p-MKK7 (4171, 1:1,000), anti-t-MKK7 (4172, 1:2,000), anti-p-JNK (9251, 1:2,000), anti-t-JNK (9252, 1:2,000), anti-TAB1 (3226, 1:2,000), anti-TAB2 (3745, 1:2,000), anti-cleaved caspase 3 (9664, 1:500) and anti-myc (2276, 1:2,000) from Cell Signaling Technology; antipolyQ (P1874, 1:1,000) and anti-HA (H3663, 1:2,000) from Sigma-Aldrich; anti-YY1 (ab109237, 1:2000) and anti-β-tubulin (ab6046, 1:2,000) from Abcam, and anti-GFP (JL-8, 1:4,000) from Clontech. Secondary antibodies used were goat anti-rabbit (11035-045, 1:5,000) and goat anti-mouse (115-035-062, 1:5,000) from Jackson ImmunoResearch.
A general note: Immunoblotting shows a protein as a band on a membrane.

A further data set addresses PAPD5 (Homo sapiens, UniProt Q8NDF8). The following applies: cited from earlier work.
For data set [2], the system named is PAPD5-overexpressing cells. As to the kind of experiment: LDH cell death assay, PAPD5-overexpressing cells. The class given is cell-based. As for the experimental part: as §1
(§3) The LDH assay on SK-N-MC cells were performed according to manufacturer's instructions (CytoTox 96 Non-Radioactive Cytotoxicity Assay Kit, Promega).

Another data set concerns A-beta peptide toxicity. As to the kind of experiment: A-beta1-42 peptide transgenic Drosophila model of Alzheimer's Disease. The class given is in vivo. As to conditions: A-beta1-42 transgenic Drosophila.
The subject of data set [3] is TAK1-MKK4-JNK pro-apoptotic signaling in EGFP-Htt1-550CAG89-expressing cells. As to the kind of experiment: Western blotting of TAK1-MKK4-JNK caspase cascade, EGFP-Htt1-550CAG89-expressing SK-N-MC cells. The class given is cell-based. As for the experimental part: as §1, §2
In data set [4] the test system is EGFP-Htt1-550CAG89-expressing SK-N-MC cells. As to the kind of experiment: LDH cell death assay, EGFP-Htt1-550CAG89-expressing SK-N-MC cells. The class given is cell-based. How it is done:
as §1, §3

Sequence of PAPD5 (Q8NDF8 whole entry): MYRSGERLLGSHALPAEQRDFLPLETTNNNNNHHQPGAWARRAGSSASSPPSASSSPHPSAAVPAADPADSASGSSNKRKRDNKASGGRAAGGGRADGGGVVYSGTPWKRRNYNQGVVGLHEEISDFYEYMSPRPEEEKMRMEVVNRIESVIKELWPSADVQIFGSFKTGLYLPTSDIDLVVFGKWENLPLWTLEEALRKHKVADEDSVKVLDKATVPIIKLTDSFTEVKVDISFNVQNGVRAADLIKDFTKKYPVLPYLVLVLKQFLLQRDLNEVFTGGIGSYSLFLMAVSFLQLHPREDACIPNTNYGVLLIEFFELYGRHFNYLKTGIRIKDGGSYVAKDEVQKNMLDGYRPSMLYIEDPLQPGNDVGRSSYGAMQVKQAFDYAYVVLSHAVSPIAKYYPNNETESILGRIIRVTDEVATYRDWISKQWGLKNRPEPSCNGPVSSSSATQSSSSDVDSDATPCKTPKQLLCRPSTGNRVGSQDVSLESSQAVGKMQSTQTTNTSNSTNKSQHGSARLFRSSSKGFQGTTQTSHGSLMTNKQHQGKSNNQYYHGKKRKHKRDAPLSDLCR

As for `CCOC(=O)c1cnc2ccc(OC(F)(F)F)cc2c1Nc1ccccc1C(=O)O` [BCH001], in data set [1], the TAK1/MKK4/JNK phosphorylation entry was “suppressed in a dose-dependent manner” and the “caspase 3 cleavage” value is “suppressed in a dose-dependent manner”. In addition, the PAPD5 enzyme activity entry on PAPD5 was “specifically target”. The PAPD5-induced cell death result in data set [2] (200 nM BCH001, FIG. 4A) is recorded as “sufficient to suppress”. The “cell death induced by the compound” value in data set [2] (400 nM, FIG. 4A) is given as “does not induce cell death”. In data set [2] (PAPD5 overexpression), the PAPD5-induced cell death entry is on record as “suppressed in a dose-dependent manner”. The “A-beta peptide toxicity (retinal degeneration)” value in the data set with A-beta peptide toxicity is reported as “capable of suppressing”. In data set [3], the “caspase 3 cleavage” value is listed as “suppressed”; the “phosphorylation levels of TAK1, MKK4 and JNK” value is listed as “reduced”. In addition, in data set [4], the EGFP-Htt1-550CAG89-induced cell death result is listed as “rescued”.
